In PMC12775434, “Ultra-large virtual screening unveils potent agonists of the neuromodulatory orphan receptor GPR139” (Nature Communications, 2025):
Where “and” joins values, the source holds several entries; their conditions need not be identical. Equal entries are not always repeated. Where two headings read alike, the source gives them in different places.

Legend:
Format in all cases: cell-based
[1] = target: T1, GPR139 (Homo sapiens, UniProt Q6DWJ6); assay: Ca2+ mobilization assay, agonist mode, stable GPR139-CHOk1 cell line; conditions: for Emax: normalized to Lundbeck Cmp 1a, read-out: Emax (%) Ca2+
T1 sequence (Q6DWJ6 1-353): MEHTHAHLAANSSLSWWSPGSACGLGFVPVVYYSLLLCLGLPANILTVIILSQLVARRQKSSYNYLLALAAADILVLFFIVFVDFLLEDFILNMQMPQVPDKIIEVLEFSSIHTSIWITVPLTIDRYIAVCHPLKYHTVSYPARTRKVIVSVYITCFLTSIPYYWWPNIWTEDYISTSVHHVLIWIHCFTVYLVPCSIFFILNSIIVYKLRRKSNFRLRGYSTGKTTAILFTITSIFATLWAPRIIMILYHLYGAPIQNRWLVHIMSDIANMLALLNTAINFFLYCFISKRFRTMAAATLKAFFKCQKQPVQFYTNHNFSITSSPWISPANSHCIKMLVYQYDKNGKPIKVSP
Method in brief: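 Agonist activity of compounds is assessed in stably transfected CHO-K1 cells using the calcium dye Fluo-4 at 37 °C in HEPES-buffered HBSS (pH 7.4). Efficacy is expressed relative to the reference agonist Lundbeck Cmp 1a, set as 100%.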

[2] = target: T1, GPR139; assay: Ca2+ mobilization assay, antagonist mode (EC80 800 nM Lundbeck Cmp 1a after 20 min preincubation), GPR139-CHOk1; conditions: individual replicates (Supplementary Figure 4)
Method in brief: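 Fluo-4-loaded GPR139-CHOk1 cells in HEPES-buffered HBSS (pH 7.4, 2.5 mM probenecid) given test compounds at 10 µM, then after 20 min challenged with 800 nM Lundbeck Cmp 1a (EC80). Calcium fluorescence read at 37 °C, 485/525 nm.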

[3] = target: T2, human muscarinic acetylcholine M1 receptor (M1R) (Homo sapiens, UniProt P11229); assay: Ca2+ mobilization counter-screen in M1R-CHOk1 cells; conditions: individual replicates (Supplementary Figure 5)
T2 sequence (P11229 1-460): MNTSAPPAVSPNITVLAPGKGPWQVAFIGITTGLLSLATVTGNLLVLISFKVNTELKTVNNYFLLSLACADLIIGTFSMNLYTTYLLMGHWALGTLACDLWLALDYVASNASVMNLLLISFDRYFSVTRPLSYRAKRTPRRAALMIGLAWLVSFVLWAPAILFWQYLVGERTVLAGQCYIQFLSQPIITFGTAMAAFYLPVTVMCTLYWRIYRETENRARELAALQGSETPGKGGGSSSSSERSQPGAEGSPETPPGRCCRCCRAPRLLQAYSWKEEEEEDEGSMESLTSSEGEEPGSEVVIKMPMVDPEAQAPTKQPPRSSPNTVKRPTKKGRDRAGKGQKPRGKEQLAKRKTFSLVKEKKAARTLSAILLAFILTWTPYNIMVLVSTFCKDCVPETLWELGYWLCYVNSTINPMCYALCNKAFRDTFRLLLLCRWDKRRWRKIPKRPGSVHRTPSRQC
Method: Primary screening and pharmacological characterization of compounds were performed using a CHO-K1 cell line that stably expresses human GPR139 (GPR139-CHOk1). The GPR139-CHOk1 cell line was kindly provided by H. Lundbeck A/S, Denmark[24]. GPR139-CHOk1 cells were grown in Ham’s F-12 Kaighn’s Modification Medium (ThermoFisher #21127030) supplemented with 10% dialyzed fetal bovine serum (US origin, ThermoFisher #26400044), 100 units/mL Penicillin-Streptomycin (ThermoFisher #15140122), and 1 mg/mL Geneticin (ThermoFisher #11811031). […] M1R-CHOk1 cells were purchased from The Missouri S&T cDNA Resource Center (#CEM100TN00). M1R-CHOk1 cells were grown in Ham’s F12 Medium (ThermoFisher #21765029) supplemented with 10% fetal bovine serum (Brazilian origin, ThermoFisher #10270106), 100 units/mL Penicillin-Streptomycin, and 0.25 mg/mL Geneticin. HEK293A cells transiently transfected with GPR139 were used for additional pharmacological assessment of signaling pathways activated by GPR139. HEK239A cells were generously provided by Dr. Asuka Inoue, Tohoku University, Japan. HEK293A cells were grown in Dulbecco’s Modified Eagle Medium (ThermoFisher #31966047) supplemented with 10% dialyzed fetal bovine serum and 100 units/mL Penicillin-Streptomycin. Cell lines were maintained at 37 °C in humidified incubator equilibrated with 5% CO2.
30,000 GPR139- or M1R-CHOk1 cells/well were seeded in black clear bottom tissue culture treated 96-well plates (Greiner #655090) and grown for 20–24 h. Cells were washed with HEPES buffer (Hank’s Balanced Salt Solution (HBBS) supplemented with 20 mM HEPES, 1 mM MgCl2, and 1 mM CaCl2; pH 7.4). Cells were loaded with 50 µL of 2 µM Fluo-4 AM dye (ThermoFisher #F14202) in HEPES buffer supplemented with 2.5 mM probenecid and 0.01% Pluronic F-68 (ThermoFisher #24040032) for 1 h at 37 °C. Cells were washed with HEPES buffer. 50 µL HEPES buffer supplemented with 2.5 mM probenecid was added, and the cells were incubated for 10 min at 37 °C before measurement. 50 µL test compounds diluted in HEPES buffer from DMSO stocks (final DMSO concentration of maximally 0.3%) were added automatically after baseline measurements. The intracellular calcium mobilization was measured on a FlexStation 3 Multimode Microplate Reader (Molecular Devices) at 37 °C with filters for excitation of 485 nm and emission of 525 nm.

[4] = Agonist mode, individual replicates (Supplementary Figure 4)
[5] = Supplementary Table 2, mean ± SEM, read-out: pEC50 Ca2+ (converted)
[6] = Supplementary Table 2, mean ± SEM
[7] = log [Compound] M = -4.5, individual replicate columns
[8] = log [Compound] M = -5.0, individual replicate columns
[9] = log [Compound] M = -5.5, individual replicate columns
[10] = log [Compound] M = -6.0, individual replicate columns
[11] = log [Compound] M = -6.5, individual replicate columns
[12] = log [Compound] M = -7.0, individual replicate columns
[13] = log [Compound] M = -7.5, individual replicate columns
[14] = log [Compound] M = -8.0, individual replicate columns
[15] = log [Compound] M = -8.5, individual replicate columns
[16] = log [Compound] M = -9.0, individual replicate columns
[17] = GPR139-CHOk1, read-out: EC50, Ca2+ mobilization

Row | Structure (SMILES) | Ca2+ signal (% of Cmp 1a) [1, 4] | EC50 [1, 5] | Emax [1, 6] | Ca2+ signal (% of Cmp 1a) [1, 7] | Ca2+ signal (% of Cmp 1a) [1, 8] | Ca2+ signal (% of Cmp 1a) [1, 9] | Ca2+ signal (% of Cmp 1a) [1, 10] | Ca2+ signal (% of Cmp 1a) [1, 11] | Ca2+ signal (% of Cmp 1a) [1, 12] | Ca2+ signal (% of Cmp 1a) [1, 13] | Ca2+ signal (% of Cmp 1a) [1, 14] | Ca2+ signal (% of Cmp 1a) [1, 15] | Ca2+ signal (% of Cmp 1a) [1, 16] | Ca2+ signal (% of Cmp 1a) [2] | Ca2+ signal (% of Carbachol) [3] | EC50 [1, 17]
1 | Cc1ccc(-c2nc(CC(=O)NC(C)c3ccccc3)no2)o1 (stereo not drawn) [Compound 1.6, CC(C1=CC=CC=C1)NC(CC2=NOC(C3=CC=C(O3)C)=N2)=O] | 102 % of Cmp 1a and 114 % of Cmp 1a and 83 % of Cmp 1a | 158 nM | 112 ± 10% | 98 % of Cmp 1a and 103 % of Cmp 1a and 120 % of Cmp 1a | 89 % of Cmp 1a and 114 % of Cmp 1a and 105 % of Cmp 1a | 87 % of Cmp 1a and 107 % of Cmp 1a and 97 % of Cmp 1a | 70 % of Cmp 1a and 96 % of Cmp 1a and 81 % of Cmp 1a | 48 % of Cmp 1a and 70 % of Cmp 1a and 59 % of Cmp 1a | 17 % of Cmp 1a and 46 % of Cmp 1a and 43 % of Cmp 1a | -11 % of Cmp 1a and 21 % of Cmp 1a and 0 % of Cmp 1a | -16 % of Cmp 1a and -2 % of Cmp 1a and 1 % of Cmp 1a | -14 % of Cmp 1a and -8 % of Cmp 1a and -4 % of Cmp 1a | -22 % of Cmp 1a and -11 % of Cmp 1a and -20 % of Cmp 1a | -5.33 % of Cmp 1a and -3.67 % of Cmp 1a and -16 % of Cmp 1a | -2 % of Carbachol and -10 % of Carbachol and 10 % of Carbachol | 
2 | CC(NC(=O)Cc1noc(-c2cccs2)n1)c1ccccc1 (stereo not drawn) [Compound 1.8, CC(C1=CC=CC=C1)NC(CC2=NOC(C3=CC=CS3)=N2)=O] | 85 % of Cmp 1a and 73 % of Cmp 1a and 70 % of Cmp 1a |  | 107 ± 2% | 109 % of Cmp 1a and 116 % of Cmp 1a and 101 % of Cmp 1a | 111 % of Cmp 1a and 105 % of Cmp 1a and 96 % of Cmp 1a | 93 % of Cmp 1a and 94 % of Cmp 1a and 84 % of Cmp 1a | 85 % of Cmp 1a and 82 % of Cmp 1a and 75 % of Cmp 1a | 69 % of Cmp 1a and 70 % of Cmp 1a and 47 % of Cmp 1a | 38 % of Cmp 1a and 47 % of Cmp 1a and 20 % of Cmp 1a | 0.333 % of Cmp 1a and 13 % of Cmp 1a and 7 % of Cmp 1a | -16 % of Cmp 1a and -13 % of Cmp 1a and 1.67 % of Cmp 1a | -16 % of Cmp 1a and 4.67 % of Cmp 1a and -5.33 % of Cmp 1a | -11 % of Cmp 1a and -5.67 % of Cmp 1a and -13 % of Cmp 1a | -5.67 % of Cmp 1a and 1.33 % of Cmp 1a and -13 % of Cmp 1a | 5 % of Carbachol and -12 % of Carbachol and 8 % of Carbachol | 200 nM
3 | Cc1ccc(-c2nc(CC(=O)NC(C)c3ccccc3)no2)s1 (stereo not drawn) [Compound 1.9, CC(C1=CC=CC=C1)NC(CC2=NOC(C3=CC=C(S3)C)=N2)=O] | 88 % of Cmp 1a and 93 % of Cmp 1a and 63 % of Cmp 1a | 200 nM | 86 ± 8% | 76 % of Cmp 1a and 96 % of Cmp 1a and 87 % of Cmp 1a and 68 % of Cmp 1a | 86 % of Cmp 1a and 100 % of Cmp 1a and 93 % of Cmp 1a and 70 % of Cmp 1a | 70 % of Cmp 1a and 105 % of Cmp 1a and 84 % of Cmp 1a and 64 % of Cmp 1a | 66 % of Cmp 1a and 73 % of Cmp 1a and 71 % of Cmp 1a and 65 % of Cmp 1a | 37 % of Cmp 1a and 55 % of Cmp 1a and 47 % of Cmp 1a and 52 % of Cmp 1a | 12 % of Cmp 1a and 23 % of Cmp 1a and 28 % of Cmp 1a and 35 % of Cmp 1a | 2.33 % of Cmp 1a and 12 % of Cmp 1a and 15 % of Cmp 1a and 9 % of Cmp 1a | -1.67 % of Cmp 1a (2×) and -4 % of Cmp 1a and 0 % of Cmp 1a | -4.67 % of Cmp 1a and -2 % of Cmp 1a (2×) and 2 % of Cmp 1a | -5 % of Cmp 1a and 7 % of Cmp 1a and -15 % of Cmp 1a and -4.33 % of Cmp 1a | 1.67 % of Cmp 1a and 13 % of Cmp 1a | -5 % of Carbachol and 6 % of Carbachol | 
4 | COc1cccc(-c2nc(CC(=O)NC(C)c3ccccc3)no2)c1 (stereo not drawn) [Compound 1.10, COC1=CC(C2=NC(CC(NC(C3=CC=CC=C3)C)=O)=NO2)=CC=C1] | 119 % of Cmp 1a and 102 % of Cmp 1a and 114 % of Cmp 1a |  | 111 ± 5% | 112 % of Cmp 1a and 110 % of Cmp 1a and 101 % of Cmp 1a | 114 % of Cmp 1a (2×) and 92 % of Cmp 1a | 118 % of Cmp 1a and 113 % of Cmp 1a and 104 % of Cmp 1a | 92 % of Cmp 1a and 83 % of Cmp 1a and 79 % of Cmp 1a | 70 % of Cmp 1a and 58 % of Cmp 1a and 60 % of Cmp 1a | 51 % of Cmp 1a and 30 % of Cmp 1a and 40 % of Cmp 1a | 20 % of Cmp 1a and 5.67 % of Cmp 1a and 19 % of Cmp 1a | 10 % of Cmp 1a and -8 % of Cmp 1a and 0.333 % of Cmp 1a | 11 % of Cmp 1a and -17 % of Cmp 1a and 4 % of Cmp 1a | 16 % of Cmp 1a and -3 % of Cmp 1a and 6.33 % of Cmp 1a | 0.667 % of Cmp 1a and -2.67 % of Cmp 1a and -13 % of Cmp 1a | 12 % of Carbachol and -9 % of Carbachol and 13 % of Carbachol | 200 nM
